Key:
ethanol-fed Wistar rats [1] = experiment: Oxidative stress parameters in liver of ethanol-fed rats (Lieber-DeCarli diet); assay type: in vivo; design: GR activity reduction compared to disease group / increase of ethanol effect on GR activity / hydrogen peroxide amount reduced below the reference value: concentration or dose not given beside the values; details: rat liver; for reduction of ethanol effect on hydrogen peroxide: I-ol, I-an 0.4/4/40 mg/kg b.w., UDCA 40 mg/kg; for reduction of ethanol effect on hydrogen peroxide / hydrogen peroxide decrease compared to disease group / reduction of ethanol effect on reduced glutathione (GSH): oral; for reduction of ethanol effect on hydrogen peroxide / hydrogen peroxide decrease compared to disease group / reduction of ethanol effect on reduced glutathione (GSH) / SRA decrease compared to disease group: 10 weeks; for increase of ethanol effect on GR activity: as worded in Fig 3 legend; for GSH elevation compared to disease group / SRA decrease compared to disease group: average over 0.4/4/40 mg/kg b.w.; for SRA decrease compared to disease group: daily oral gavage; for reduction of ethanol effect on glutathione reductase (GR) activity: average over doses (UDCA 40 mg/kg); for GPx activity below the reference value in healthy animals: highest concentration (UDCA 40 mg/kg b.w.); for reduction of ethanol effect on glutathione peroxidase (GPx) activity: on average
Source text: (§1) A total of 68 female Wistar rats (Institute of Pharmacology and Biochemistry Breeding House, Minsk, Belarus) aged 80–90 days and weighting 180–200 g at the beginning of the experiments were used in the study. Each rat group (n = 6–8) was housed in a separate cage and had free access to the liquid diet during the full study period. Prior to the study, the animals were habituated for seven days to the cage conditions and experimental handling. The rats were maintained in a controlled experimental environment (20–25°C, 40–50% humidity, 12 h light per day, room with a 12-h light/dark cycle).
(§2) Rats were divided into ten groups characterized by the diet and the test compounds (S1 Table). Group 1 is the first control group in which a normal solid standard diet was fed for 12 weeks. All other groups received the liquid Lieber-DeCarli (LDC) diet (S2 Table), which combines food and drink in a liquid manner. It was prepared by ssniff Spezialdiäten GmbH, Soest. The addition of maltodextrin to this diet should compensate the pure caloric effect of ethanol, whereby 1.77 g maltodextrin replaces 1 g ethanol. The calorie value of both the control and ethanol diets was the same: 35% calories from fat, 11% from carbohydrates, 18% from protein and 36% from ethanol.
(§3) In the first two weeks rats of all groups–with the exception of group 1 –were fed with LDC diet plus maltodextrin in an appropriate amount to adapt the animals to the liquid diet. Group 2 is the second control group in which the isocaloric diet was administered for further 10 weeks until the end of the experiment. […] The test compounds I-ol, I-an and UDCA were dissolved in a 0.8% aqueous HPMC gel to obtain the appropriate concentrations: (1) I-ol with 0.4, 4 and 40 mg/kg b. w. (2) I-an with 0.4, 4 and 40 mg/kg b. w. (3) UDCA with 40 mg/kg b. w. Rats of group 2 and 3 received only HPMC as a placebo. The LDC diets were fed ad libitum and their intake per cage was controlled daily. The corresponding bottles were stored in the cages from 08:00 a. m. until 06:00 p. m. and replaced by drinking water bottles overnight until 08:00 a. m. in the next morning. Every day at the same time, the test compounds or only HPMC were administered intragastrically by oral gavage with an administration volume of 2 ml/kg b. w. After ten weeks of treatment, the rats were anesthetized with an intraperitoneal injection of a 5% pentobarbital solution and then killed by aorta scarification. Their livers were dissected and liver pieces frozen and stored in liquid nitrogen. A part of the liver was fixed for histological investigations. Blood was collected before sacrifice, centrifuged for serum preparation and finally stored in liquid nitrogen.
The generation of reactive oxygen species (ROS) in rat liver was evaluated by NADPH-induced chemiluminescence with amplification by both luminol for the detection of superoxide (SRA) radical anion and lucigenin detecting hydrogen peroxide as described by Müller-Peddinhaus. In short, liver pieces were homogenized in 0.1 M sodium phosphate buffer pH 7.4. The homogenates were centrifuged at 9,000 x g at 0°C and aliquots were used for the measurement. Reduced glutathione (GSH) was determined by a modified Ellman`s method: 0.2 ml of the liver homogenates’ supernatant were added to 1.6 ml of an EDTA-/sodium […] solution. The absorbance was read at […] against blanks. GSH solution—prepared immediately before use—served as a standard. End products of the lipid peroxidation reaction are equivalent to TBARS (thiobarbituric acid-reacting substances) and their concentration was measured according to Buege et al.. The enzymatic activity of cytosolic glutathione peroxidase (GPx) and microsomal glutathione reductase (GR) were determined as described by Buko at al.. Catalase activity was evaluated by spectrophotometric measurement using hydrogen peroxide as a substrate according to Beers et al.. […]

ethanol-fed Wistar rats [2] = experiment: Liver and serum lipid parameters of ethanol-fed rats; assay type: in vivo, rat; details: for liver cholesterol decrease compared to disease group / reduction of ethanol effect on hepatic cholesterol / reduction of ethanol effect on hepatic triglycerides / liver phospholipids decrease compared to disease group / liver triglycerides decrease compared to disease group / reduction of ethanol effect on hepatic phospholipids: liver; for reduction of ethanol effect on hepatic triglycerides: average over 0.4/4/40 mg/kg b.w. (UDCA 40 mg/kg), oral, 10 weeks; for liver phospholipids decrease compared to disease group / liver triglycerides decrease compared to disease group / reduction of ethanol effect on hepatic phospholipids / reduction of ethanol effect on serum triglycerides / serum triglycerides decrease compared to disease group: average over doses (UDCA 40 mg/kg)
Source text: as §1, §2, §3
The serum marker enzyme activities, alanine aminotransferase (ALT), aspartate aminotransferase (AST), alkaline phosphatase (AP) and gamma-glutamyltransferase (γ-GT) as well as triglycerides and bilirubin were measured according to manufacturer’s instructions using standard commercial kits from Lachema (PLIVA-Lachema Diagnostika, Czech Republic). Serum concentrations of leptin, adiponectin and TNF-alpha were analyzed using commercial ELISA test kits: BioCat GmbH (Heidelberg, German) for adiponectin and TNF-alpha, BioVendor Laboratory Medicine Inc. (Brno, Czech Republic) for leptin. Insulin serum concentration was determined by radioimmunoassay using the commercially available kit RIO-insulin-PG-J125 (IBOCH, Minsk, Belarus). Glucose serum concentration was determined by the Accu-Check Active blood glucose testing system from Roche-Diagnostics GmbH (Mannheim, Germany).
Lipids were extracted with a chloroform: methanol mixture (2:1 v/v). Neutral lipids and phospholipids were separated into classes by thin-layer chromatography (TLC). Lipid fractions (triglycerides, cholesterol and its fractions) were measured in extracts from scraped spots by routine methods using the appropriate commercial kits. […]

[3] = First pharmacokinetic study of I-ol, calculated blood concentration; assay type: in vivo; details: rat
Procedure: Following these studies, we performed a single pharmacokinetic study with I-ol to get evidence for a possible further development of this lead compound. The complete study is summarized in the Word document " First pharmacokinetic study of I-ol".
Assuming a maximum oral bioavailability of 0.1 percent for I-ol, the following comparison results:
The peroral intake of 0.4 mg I-ol/kg body weight of the rat leads to a blood concentration of 6.3 ng I-ol/ml, which corresponds to 26.3 nmol I-ol/l. An average body weight of 230 g and a blood volume of 14.5 ml was assumed. The molecular mass of I-ol is 240 g/mol. An oral bioavailability of 0.1% was used despite reasonable doubt about the finality of this amount.

[4] = average over 0.4/4/40 mg/kg b.w. (UDCA 40 mg/kg)

CCCCCCCCCCCCn1ccnc1 [I-an, 1-Imidazolyldodecane]
GR activity reduction compared to disease group (ethanol-fed Wistar rats [1]): 11% | hydrogen peroxide amount reduced below the reference value (ethanol-fed Wistar rats [1]): 56% | reduction of ethanol effect on hydrogen peroxide (ethanol-fed Wistar rats [1]): completely reduced | increase of ethanol effect on GR activity (ethanol-fed Wistar rats [1]): 43% | GSH elevation compared to disease group (ethanol-fed Wistar rats [1]): 94% | reduction of ethanol effect on TBARS (ethanol-fed Wistar rats [1]; [4]): 93% | hydrogen peroxide decrease compared to disease group (ethanol-fed Wistar rats [1]; [4]): 78% | reduction of ethanol effect on reduced glutathione (GSH) (ethanol-fed Wistar rats [1]; [4]): 55% | SRA decrease compared to disease group (ethanol-fed Wistar rats [1]): 43% | GPx activity elevation compared to disease group (ethanol-fed Wistar rats [1]; average over doses): 10% | TBARS decrease compared to disease group (ethanol-fed Wistar rats [1]; average over doses): 40% | reduction of ethanol effect on glutathione reductase (GR) activity (ethanol-fed Wistar rats [1]): 43% | GSH value above the reference value of healthy animals (ethanol-fed Wistar rats [1]; highest concentration): 2% | TBARS level below the reference values of healthy animals (ethanol-fed Wistar rats [1]; highest concentration): 31% | GPx activity below the reference value in healthy animals (ethanol-fed Wistar rats [1]): 10% | reduction of ethanol effect on glutathione peroxidase (GPx) activity (ethanol-fed Wistar rats [1]): completely reduced | liver cholesterol decrease compared to disease group (ethanol-fed Wistar rats [2]; UDCA 40 mg/kg): 11% | reduction of ethanol effect on hepatic cholesterol (ethanol-fed Wistar rats [2]; UDCA 40 mg/kg): 82% | reduction of ethanol effect on hepatic triglycerides (ethanol-fed Wistar rats [2]): 73% | liver phospholipids decrease compared to disease group (ethanol-fed Wistar rats [2]): 20% | liver triglycerides decrease compared to disease group (ethanol-fed Wistar rats [2]): 41% | reduction of ethanol effect on hepatic phospholipids (ethanol-fed Wistar rats [2]): completely eliminated | reduction of ethanol effect on serum LDL cholesterol (ethanol-fed Wistar rats [2]; serum, UDCA 40 mg/kg): 70% | reduction of ethanol effect on serum VLDL (ethanol-fed Wistar rats [2]; serum, UDCA 40 mg/kg): 59% | serum LDL cholesterol decrease compared to disease group (ethanol-fed Wistar rats [2]; serum, average over doses): 24% | serum VLDL decrease compared to disease group (ethanol-fed Wistar rats [2]; serum, average over doses): 18% | reduction of ethanol effect on serum triglycerides (ethanol-fed Wistar rats [2]; serum): 83% | serum triglycerides decrease compared to disease group (ethanol-fed Wistar rats [2]; serum): 41%

OCCCCCCCCCCCCn1ccnc1 [I-ol]
maximum oral bioavailability ([3]; oral, assumed value from first pharmacokinetic study): ≤ 0.1% | calculated blood concentration ([3]; peroral 0.4 mg/kg body weight, bioavailability 0.1% assumed): 26.3 nmol I-ol/l | calculated blood concentration ([3]; peroral 0.4 mg/kg body weight, bioavailability 0.1%, blood volume 14.5 ml, body weight 230 g assumed): 6.3 ng I-ol/ml | calculated blood concentration ([3]; peroral 4 mg/kg, bioavailability 0.1% assumed): 263 nmol/L | calculated blood concentration ([3]; peroral 40 mg/kg, bioavailability 0.1% assumed): 2630 nmol/L | GR activity reduction compared to disease group (ethanol-fed Wistar rats [1]): 10% | reduction of ethanol effect on hydrogen peroxide (ethanol-fed Wistar rats [1]): completely reduced | increase of ethanol effect on GR activity (ethanol-fed Wistar rats [1]): 41% | GSH elevation compared to disease group (ethanol-fed Wistar rats [1]): 62% | hydrogen peroxide decrease compared to disease group (ethanol-fed Wistar rats [1]; [4]): 75% | reduction of ethanol effect on reduced glutathione (GSH) (ethanol-fed Wistar rats [1]; [4]): 36% | SRA decrease compared to disease group (ethanol-fed Wistar rats [1]): 36% | GPx activity elevation compared to disease group (ethanol-fed Wistar rats [1]; average over doses): 17% | reduction of ethanol effect on glutathione reductase (GR) activity (ethanol-fed Wistar rats [1]): 41% | TBARS decrease compared to disease group (ethanol-fed Wistar rats [1]; highest concentration): 50% | TBARS level below the reference values of healthy animals (ethanol-fed Wistar rats [1]; highest concentration): 11% | GPx activity below the reference value in healthy animals (ethanol-fed Wistar rats [1]): 8% | reduction of ethanol effect on glutathione peroxidase (GPx) activity (ethanol-fed Wistar rats [1]): completely reduced | liver cholesterol decrease compared to disease group (ethanol-fed Wistar rats [2]; UDCA 40 mg/kg): no influence | reduction of ethanol effect on hepatic cholesterol (ethanol-fed Wistar rats [2]; UDCA 40 mg/kg): no influence | reduction of ethanol effect on hepatic triglycerides (ethanol-fed Wistar rats [2]): 71% | liver phospholipids decrease compared to disease group (ethanol-fed Wistar rats [2]): 13% | liver triglycerides decrease compared to disease group (ethanol-fed Wistar rats [2]): 40% | reduction of ethanol effect on hepatic phospholipids (ethanol-fed Wistar rats [2]): 65% | reduction of ethanol effect on serum VLDL (ethanol-fed Wistar rats [2]; serum, UDCA 40 mg/kg): 55% | serum VLDL decrease compared to disease group (ethanol-fed Wistar rats [2]; serum, average over doses): 17% | reduction of ethanol effect on serum triglycerides (ethanol-fed Wistar rats [2]; serum): 91% | serum triglycerides decrease compared to disease group (ethanol-fed Wistar rats [2]; serum): 44% | reduction of ethanol effect on serum LDL cholesterol (ethanol-fed Wistar rats [2]; serum, lowest concentration): 61%

Source: publication PMC7377376, “Drug targeting CYP2E1 for the treatment of early-stage alcoholic steatohepatitis” (PLoS ONE, 2020)
